Assay results taken from ChEMBL document CHEMBL3627608, “Crystal structures of human RIP2 kinase catalytic domain complexed with ATP-competitive inhibitors: Foundations for understanding inhibitor selectivity” (Bioorg Med Chem, 2015).

How the values were obtained:
[1] = molecular target: Protein-tyrosine kinase 2-beta (Homo sapiens) (UniProt Q14289); experiment: Inhibition of PYK2 (unknown origin) at 10 uM after 120 mins P33 radiolabeled kinase activity assay
[2] = molecular target: T1, MAP kinase-activated protein kinase 5 (Homo sapiens) (UniProt Q8IW41); experiment: Inhibition of MAPKAPK5 (unknown origin) at 10 uM after 120 mins P33 radiolabeled kinase activity assay
T1 sequence (whole entry): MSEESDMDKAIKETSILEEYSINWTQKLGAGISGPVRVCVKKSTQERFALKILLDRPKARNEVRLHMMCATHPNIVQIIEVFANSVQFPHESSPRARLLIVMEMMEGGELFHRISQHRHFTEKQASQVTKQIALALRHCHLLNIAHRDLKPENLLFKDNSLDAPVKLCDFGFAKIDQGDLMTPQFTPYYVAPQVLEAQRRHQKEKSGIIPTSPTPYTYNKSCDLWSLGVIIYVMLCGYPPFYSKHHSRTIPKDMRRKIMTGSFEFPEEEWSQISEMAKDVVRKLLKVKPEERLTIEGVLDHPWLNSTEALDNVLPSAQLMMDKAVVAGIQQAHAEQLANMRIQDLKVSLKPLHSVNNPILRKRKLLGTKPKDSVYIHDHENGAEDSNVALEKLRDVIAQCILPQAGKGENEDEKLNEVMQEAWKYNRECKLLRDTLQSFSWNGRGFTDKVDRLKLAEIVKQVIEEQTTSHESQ

[3] = molecular target: Dual specificity tyrosine-phosphorylation-regulated kinase 1A (Homo sapiens) (UniProt Q13627); experiment: Inhibition of DYRK1 (unknown origin) at 10 uM after 120 mins P33 radiolabeled kinase activity assay
[4] = molecular target: T2, Tyrosine-protein kinase TXK (Homo sapiens) (UniProt P42681); experiment: Inhibition of TXK (unknown origin) at 10 uM after 120 mins P33 radiolabeled kinase activity assay
T2 sequence (whole entry): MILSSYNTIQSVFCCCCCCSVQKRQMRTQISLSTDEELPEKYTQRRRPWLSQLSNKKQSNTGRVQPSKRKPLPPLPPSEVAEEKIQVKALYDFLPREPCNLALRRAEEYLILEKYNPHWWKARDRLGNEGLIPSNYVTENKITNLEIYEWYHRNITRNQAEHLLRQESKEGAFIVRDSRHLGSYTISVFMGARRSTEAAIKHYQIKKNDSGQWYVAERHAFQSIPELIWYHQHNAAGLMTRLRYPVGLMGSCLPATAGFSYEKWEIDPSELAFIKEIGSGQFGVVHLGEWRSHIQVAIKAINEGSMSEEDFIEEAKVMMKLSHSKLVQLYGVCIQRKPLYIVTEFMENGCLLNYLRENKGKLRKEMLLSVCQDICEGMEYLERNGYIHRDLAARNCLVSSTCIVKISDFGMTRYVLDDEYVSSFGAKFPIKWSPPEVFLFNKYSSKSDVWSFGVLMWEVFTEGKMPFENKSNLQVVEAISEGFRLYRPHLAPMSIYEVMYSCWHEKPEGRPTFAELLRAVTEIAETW

[5] = molecular target: Ribosomal protein S6 kinase alpha-1 (Homo sapiens) (UniProt Q15418); experiment: Inhibition of RSK1 (unknown origin) at 10 uM after 120 mins P33 radiolabeled kinase activity assay
[6] = molecular target: Cyclin-dependent kinase 1/cyclin B1 (Homo sapiens) (UniProt P06493+P14635); experiment: Inhibition of CDK1/cyclin B (unknown origin) at 10 uM after 120 mins P33 radiolabeled kinase activity assay; format: protein-complex assay
[7] = molecular target: T3, Serine/threonine-protein kinase PLK4 (Homo sapiens) (UniProt O00444); experiment: Inhibition of PLK4 (unknown origin) at 10 uM after 120 mins P33 radiolabeled kinase activity assay
T3 sequence (whole entry): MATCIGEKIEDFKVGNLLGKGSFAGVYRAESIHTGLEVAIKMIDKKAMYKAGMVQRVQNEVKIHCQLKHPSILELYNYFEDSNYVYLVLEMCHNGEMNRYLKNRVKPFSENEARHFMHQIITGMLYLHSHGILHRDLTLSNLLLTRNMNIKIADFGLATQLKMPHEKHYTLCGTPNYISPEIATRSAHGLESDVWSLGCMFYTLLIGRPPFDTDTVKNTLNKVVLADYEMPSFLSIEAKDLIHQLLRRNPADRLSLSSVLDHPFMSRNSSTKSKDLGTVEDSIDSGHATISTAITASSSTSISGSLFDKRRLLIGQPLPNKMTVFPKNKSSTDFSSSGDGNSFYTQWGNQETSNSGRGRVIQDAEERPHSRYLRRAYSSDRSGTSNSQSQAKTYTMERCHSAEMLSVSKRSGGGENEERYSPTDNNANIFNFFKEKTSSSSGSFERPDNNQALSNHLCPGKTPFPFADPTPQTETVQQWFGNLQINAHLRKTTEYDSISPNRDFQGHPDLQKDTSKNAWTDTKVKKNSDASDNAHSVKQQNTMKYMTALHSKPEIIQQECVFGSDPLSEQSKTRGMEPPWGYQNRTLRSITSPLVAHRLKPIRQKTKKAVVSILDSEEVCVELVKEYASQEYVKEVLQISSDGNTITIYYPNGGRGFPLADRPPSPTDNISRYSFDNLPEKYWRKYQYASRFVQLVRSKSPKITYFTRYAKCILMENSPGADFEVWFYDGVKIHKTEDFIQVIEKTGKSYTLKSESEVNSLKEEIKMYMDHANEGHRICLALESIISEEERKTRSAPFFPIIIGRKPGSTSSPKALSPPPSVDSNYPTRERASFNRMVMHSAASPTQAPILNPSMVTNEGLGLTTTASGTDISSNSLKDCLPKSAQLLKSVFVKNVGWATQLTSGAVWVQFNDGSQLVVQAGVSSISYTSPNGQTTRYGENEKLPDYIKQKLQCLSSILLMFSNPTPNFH

[8] = molecular target: T4, Serine/threonine-protein kinase Nek2 (Homo sapiens) (UniProt P51955); experiment: Inhibition of NEK2 (unknown origin) at 10 uM after 120 mins P33 radiolabeled kinase activity assay
T4 sequence (whole entry): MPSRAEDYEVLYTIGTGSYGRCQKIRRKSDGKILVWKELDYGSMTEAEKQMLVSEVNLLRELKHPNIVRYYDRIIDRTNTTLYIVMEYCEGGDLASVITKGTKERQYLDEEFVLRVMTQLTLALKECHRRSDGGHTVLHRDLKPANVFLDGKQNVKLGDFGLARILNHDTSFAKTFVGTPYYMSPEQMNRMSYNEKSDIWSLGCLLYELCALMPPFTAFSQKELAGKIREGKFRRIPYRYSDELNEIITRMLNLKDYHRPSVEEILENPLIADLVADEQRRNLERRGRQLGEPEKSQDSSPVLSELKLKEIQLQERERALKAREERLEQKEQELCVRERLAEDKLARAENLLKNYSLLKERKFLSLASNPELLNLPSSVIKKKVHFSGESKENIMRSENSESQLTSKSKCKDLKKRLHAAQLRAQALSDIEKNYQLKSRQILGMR

Chain of Cyclin-dependent kinase 1/cyclin B1 (Homo sapiens) (P06493 whole entry, looked up): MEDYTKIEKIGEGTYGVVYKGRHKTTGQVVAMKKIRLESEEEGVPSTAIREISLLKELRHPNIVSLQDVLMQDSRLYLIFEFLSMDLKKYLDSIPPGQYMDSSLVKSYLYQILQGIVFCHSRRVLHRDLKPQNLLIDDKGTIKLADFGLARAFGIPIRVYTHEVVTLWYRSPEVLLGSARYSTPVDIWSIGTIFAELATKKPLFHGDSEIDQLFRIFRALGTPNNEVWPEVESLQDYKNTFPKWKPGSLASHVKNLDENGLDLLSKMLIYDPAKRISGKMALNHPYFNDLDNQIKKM
Chain of Cyclin-dependent kinase 1/cyclin B1 (Homo sapiens) (P14635 whole entry, looked up): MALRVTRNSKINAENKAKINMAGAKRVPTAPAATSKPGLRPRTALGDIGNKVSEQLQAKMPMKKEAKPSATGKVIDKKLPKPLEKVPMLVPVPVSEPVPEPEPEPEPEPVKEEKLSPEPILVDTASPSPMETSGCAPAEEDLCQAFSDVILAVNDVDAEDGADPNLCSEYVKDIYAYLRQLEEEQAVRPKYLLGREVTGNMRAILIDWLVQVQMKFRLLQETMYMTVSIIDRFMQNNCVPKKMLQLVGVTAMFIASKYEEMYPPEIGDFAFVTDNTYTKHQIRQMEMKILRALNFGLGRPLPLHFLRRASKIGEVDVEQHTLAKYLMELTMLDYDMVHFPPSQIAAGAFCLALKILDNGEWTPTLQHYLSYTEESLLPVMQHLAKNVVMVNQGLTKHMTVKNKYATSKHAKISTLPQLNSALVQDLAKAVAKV
Chain of Ribosomal protein S6 kinase alpha-1 (Homo sapiens) (Q15418 whole entry): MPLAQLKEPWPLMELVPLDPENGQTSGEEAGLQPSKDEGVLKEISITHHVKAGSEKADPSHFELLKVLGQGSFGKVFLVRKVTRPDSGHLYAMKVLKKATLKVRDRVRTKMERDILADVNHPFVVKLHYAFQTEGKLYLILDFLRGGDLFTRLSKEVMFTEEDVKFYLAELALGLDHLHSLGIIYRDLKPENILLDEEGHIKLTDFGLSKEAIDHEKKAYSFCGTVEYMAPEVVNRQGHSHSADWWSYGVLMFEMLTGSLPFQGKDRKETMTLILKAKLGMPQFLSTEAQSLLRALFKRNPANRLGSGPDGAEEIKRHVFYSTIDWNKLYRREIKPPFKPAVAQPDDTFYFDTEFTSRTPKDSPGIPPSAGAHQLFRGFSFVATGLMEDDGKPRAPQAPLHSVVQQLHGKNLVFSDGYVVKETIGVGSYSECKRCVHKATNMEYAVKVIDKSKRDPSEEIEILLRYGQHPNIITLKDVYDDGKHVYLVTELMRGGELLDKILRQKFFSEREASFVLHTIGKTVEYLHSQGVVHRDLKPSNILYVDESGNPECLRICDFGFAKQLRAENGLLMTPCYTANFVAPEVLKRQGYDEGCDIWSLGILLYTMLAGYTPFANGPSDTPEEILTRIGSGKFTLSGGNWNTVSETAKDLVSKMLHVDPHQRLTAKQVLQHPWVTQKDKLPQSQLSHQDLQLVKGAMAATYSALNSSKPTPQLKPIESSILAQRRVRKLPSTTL
Chain of Protein-tyrosine kinase 2-beta (Homo sapiens) (Q14289 whole entry, looked up): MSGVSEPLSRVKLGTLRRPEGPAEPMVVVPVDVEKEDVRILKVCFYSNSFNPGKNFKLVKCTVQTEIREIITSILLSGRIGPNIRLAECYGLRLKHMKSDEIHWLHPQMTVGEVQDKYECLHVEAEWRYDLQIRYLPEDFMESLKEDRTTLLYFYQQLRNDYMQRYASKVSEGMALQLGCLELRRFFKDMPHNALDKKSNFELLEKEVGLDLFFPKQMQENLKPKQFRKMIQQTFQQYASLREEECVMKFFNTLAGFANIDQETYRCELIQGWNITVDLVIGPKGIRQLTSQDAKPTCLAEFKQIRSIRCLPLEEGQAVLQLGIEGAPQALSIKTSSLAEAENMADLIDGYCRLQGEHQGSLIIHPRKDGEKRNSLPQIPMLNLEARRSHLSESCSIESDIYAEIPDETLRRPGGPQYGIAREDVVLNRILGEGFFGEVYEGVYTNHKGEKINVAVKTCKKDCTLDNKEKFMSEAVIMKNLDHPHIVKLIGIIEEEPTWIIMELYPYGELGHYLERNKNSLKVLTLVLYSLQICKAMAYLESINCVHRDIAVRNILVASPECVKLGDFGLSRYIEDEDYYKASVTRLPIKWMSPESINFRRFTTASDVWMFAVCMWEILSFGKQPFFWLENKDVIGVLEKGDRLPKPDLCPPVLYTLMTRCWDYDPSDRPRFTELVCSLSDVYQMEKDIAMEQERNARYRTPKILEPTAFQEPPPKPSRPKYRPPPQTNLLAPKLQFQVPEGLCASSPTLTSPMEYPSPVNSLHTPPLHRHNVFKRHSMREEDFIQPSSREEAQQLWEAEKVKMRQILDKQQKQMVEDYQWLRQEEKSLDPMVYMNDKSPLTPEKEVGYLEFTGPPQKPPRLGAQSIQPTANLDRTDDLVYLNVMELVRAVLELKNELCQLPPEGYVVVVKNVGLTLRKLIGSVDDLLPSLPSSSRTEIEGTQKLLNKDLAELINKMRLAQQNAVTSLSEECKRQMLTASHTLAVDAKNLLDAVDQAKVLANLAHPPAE

inhibition [1] [%] | inhibition [2] [%] | inhibition [3] [%] | inhibition [4] [%] | inhibition [5] [%] | inhibition [6] [%] | inhibition [7] [%] | inhibition [8] [%] | SMILES
23.7 | 4.25 | 31.6 | 97.5 | 73 | 70.8 | 97 | 20.5 | CS(=O)(=O)c1cccc(Nc2nccc(-c3sc(N4CCOCC4)nc3-c3cccc(NS(=O)(=O)c4c(F)cccc4F)c3)n2)c1
7.67 | 5.26 | 9.38 | 27.8 | 11.6 | -3.76 | 17.3 | 2.45 | COCCNC(=O)c1ccc2c(c1)nc(-c1cnc(-c3ccc(Cl)cc3)[nH]1)n2CCOC
16.5 | -1.68 | 8.89 | 24.8 | 52 | 35.1 | 19.3 | 18.6 | CC(C)(C)c1cc(NC(=O)Nc2ccc(Oc3ccncc3)cc2)no1
